Entries after “also recorded” stand apart in the source; their conditions may differ. Like-named read-outs stand apart in the source and are kept apart here. Positions of bridges follow the written chain, without caps; N, C: chain ends. Residues, ends and D or L forms follow the SMILES beside them.
Experiments:
M. tuberculosis H37Rv = tested on: M. tuberculosis H37Rv; design: species or system BALB/c mice; conditions: mouse, in vivo
in vivo = conditions: male, BALB/c, mouse, iv, 33 mg/kg
[1] = mouse, in vivo, iv, 33 mg/kg
M. smegmatis = assay type: cell-based, Mycobacterium smegmatis mc^2155
[2] = tested on: M. tuberculosis H37Rv infected mice; assay type: in vivo, BALB/c mice
[3] = in vivo; cited from earlier work

## CC[C@H](C)[C@@H]1NC(=O)[C@H](CO)NC(=O)[C@H](CCCCN)NC(=O)[C@@H]2CSSC[C@@H](C(=O)N[C@@H](Cc3ccc(O)cc3)C(=O)O)NC(=O)[C@H](CCCCN)NC(=O)[C@@H]3CSSC[C@H](NC(=O)[C@H](CCC(N)=O)NC(=O)[C@H]([C@@H](C)CC)NC(=O)[C@H](CC(=O)O)NC(=O)[C@H](CC(=O)O)NC(=O)[C@H](CCC(=O)O)NC(=O)[C@H](CO)NC(=O)[C@H](Cc4c[nH]c5ccccc45)NC(=O)[C@@H]4CCCN4C(=O)CNC(=O)[C@H](CC(N)=O)NC(=O)[C@@H](NC(=O)CNC(=O)[C@H](Cc4ccccc4)NC(=O)CN)CSSC[C@H](NC(=O)[C@H](Cc4ccc(O)cc4)NC(=O)CNC(=O)CNC(=O)[C@H](CCCCN)NC(=O)[C@H](Cc4ccc(O)cc4)NC(=O)CNC(=O)[C@H](CCCCN)NC1=O)C(=O)N[C@@H](C)C(=O)N[C@@H](CCCNC(=N)N)C(=O)NCC(=O)NCC(=O)N[C@@H](Cc1ccccc1)C(=O)N[C@@H](C(C)C)C(=O)N3)C(=O)N[C@@H](Cc1c[nH]cn1)C(=O)N[C@@H](CC(N)=O)C(=O)N[C@@H](Cc1c[nH]cn1)C(=O)N2 [NZX] (H-GFGCNGPWSEDDIQCHNHCKSIKGYKGGYCARGGFVCKCY-OH; disulfide 4-30, 15-37, 19-39)
M. tuberculosis H37Rv
  Bacterial (CFU) reduction compared to the untreated control: 75%
In vivo
  Cmax: 61 µg/mL
  half-life: 42 min
[1]
  NZX in the circulation after 240 min: not detected
M. smegmatis
  Frequency at which resistant mutants emerge: < 10^–9
  Resistant mutants detected: did not detect any resistant mutants
[2]; mouse, in vivo
  Lung tissue destruction / inflammatory score (perivascular, peribronchiolar and alveolar infiltration): decreased tissue destruction

## CC[C@@H](CO)NCCN[C@@H](CC)CO [ethambutol]
M. tuberculosis H37Rv
  Bacterial (CFU) reduction compared to the untreated control: 79%
[2]; n = 4–5
  Lung tissue destruction / inflammatory score (perivascular, peribronchiolar and alveolar infiltration): more severe tissue destruction

## NNC(=O)c1ccncc1 [isoniazid]
M. tuberculosis H37Rv
  Bacterial (CFU) reduction compared to the untreated control: 92%
[2]; n = 4–5
  Lung tissue destruction / inflammatory score (perivascular, peribronchiolar and alveolar infiltration): decreased tissue destruction; also recorded: preserved alveolar structure best

## plectasin
[3]
  Terminal serum elimination half-life: 51 min
